Reference: ChEMBL document CHEMBL5303304, “EUbOPEN Chemogenomics Library - IncuCyte” (2023)

Assays:
Format in all cases: toxicity, cell-based
[1] = test system: Fibroblast; assay: Incucyte cell viability with human fibroblast; details: 10 µM, compound concentration 10 uM
[2] = test system: HEK-293T; assay: Incucyte cell viability with HEK293T; details: human, 10 µM, compound concentration 10 uM
[3] = test system: U2OS; assay: Incucyte cell viability with U2OS; details: human, 10 µM, compound concentration 10 uM
Note: unitless GR value; below 1 slowed growth and below 0 cell loss.

O=C(O)c1ccc(-c2c[nH]c3ncc(-c4ccccc4)cc23)cc1C1CCCC1 [GSK-650394]
Growth Rate ([1]; 0 h, replicate number 2): -0.45
Growth Rate ([1]; 6 h, replicate number 1): 0.36
Growth Rate ([1]; 6 h, replicate number 2): -0.95
Growth Rate ([1]; 12 h, replicate number 1): -1
Growth Rate ([1]; 12 h, replicate number 2): 0.77
Growth Rate ([1]; 18 h, replicate number 1): 0.91
Growth Rate ([1]; 24 h, replicate number 1): 0.38
Growth Rate ([2]; 0 h, replicate number 1): 0.23
Growth Rate ([2]; 0 h, replicate number 2): 0.55
Growth Rate ([3]; 0 h, replicate number 1): 0.01
Growth Rate ([3]; 6 h, replicate number 1): 0.39
Growth Rate ([3]; 12 h, replicate number 1): 0.79
Growth Rate ([3]; 12 h, replicate number 2): 0.98
Growth Rate ([3]; 18 h, replicate number 1): 0.86
Growth Rate ([3]; 18 h, replicate number 2): 0.92
Growth Rate ([3]; 24 h, replicate number 2): 0.96

CN(C)c1cc2c(Nc3ccc4c(cnn4Cc4ccccc4)c3)ncnc2cn1 [GW282974X]
Growth Rate ([1]; 0 h, replicate number 1): -1
Growth Rate ([1]; 18 h, replicate number 2): 0.86
Growth Rate ([1]; 24 h, replicate number 1): 0.77
Growth Rate ([1]; 24 h, replicate number 2): 0.69
Growth Rate ([2]; 0 h, replicate number 1): -1
Growth Rate ([2]; 0 h, replicate number 2): -0.53
Growth Rate ([2]; 12 h, replicate number 2): 0.95
Growth Rate ([2]; 18 h, replicate number 1): 0.8
Growth Rate ([2]; 18 h, replicate number 2): 0.77
Growth Rate ([2]; 24 h, replicate number 1): 0.59
Growth Rate ([2]; 24 h, replicate number 2): 0.61
Growth Rate ([3]; 0 h, replicate number 1): -0.05
Growth Rate ([3]; 6 h, replicate number 2): 0.77
Growth Rate ([3]; 12 h, replicate number 1): 0.77
Growth Rate ([3]; 12 h, replicate number 2): 0.87
Growth Rate ([3]; 18 h, replicate number 1): 0.83
Growth Rate ([3]; 18 h, replicate number 2): 0.91
Growth Rate ([3]; 24 h, replicate number 2): 0.65

O=C1Nc2ccc(C(=O)c3ccco3)cc2C1=Cc1cc(Cl)c(O)c(Cl)c1 [GW406108X]
Growth Rate ([1]; 0 h, replicate number 1): -1
Growth Rate ([1]; 12 h, replicate number 2): 1
Growth Rate ([1]; 18 h, replicate number 1): 1
Growth Rate ([1]; 18 h, replicate number 2): 0.83
Growth Rate ([1]; 24 h, replicate number 1): 0.7
Growth Rate ([1]; 24 h, replicate number 2): 0.64
Growth Rate ([2]; 0 h, replicate number 1): -1
Growth Rate ([2]; 0 h, replicate number 2): 0.57
Growth Rate ([2]; 6 h, replicate number 1): 0.79
Growth Rate ([2]; 6 h, replicate number 2): 0.56
Growth Rate ([2]; 12 h, replicate number 1): 0.25
Growth Rate ([2]; 12 h, replicate number 2): 0.31
Growth Rate ([2]; 18 h, replicate number 1): 0.41
Growth Rate ([2]; 18 h, replicate number 2): 0.17
Growth Rate ([2]; 24 h, replicate number 1): 0.24
Growth Rate ([2]; 24 h, replicate number 2): 0.11
Growth Rate ([3]; 6 h, replicate number 2): -0.19
Growth Rate ([3]; 12 h, replicate number 1): 0.5
Growth Rate ([3]; 12 h, replicate number 2): 0.24
Growth Rate ([3]; 18 h, replicate number 1): 0.4
Growth Rate ([3]; 18 h, replicate number 2): 0.33
Growth Rate ([3]; 24 h, replicate number 1): 0.56
Growth Rate ([3]; 24 h, replicate number 2): 0.38

Cc1cc(SCc2sc(-c3ccc(C(F)(F)F)cc3)nc2C)ccc1OCC(=O)O [GW501516]
Growth Rate ([1]; 0 h, replicate number 2): 0.89
Growth Rate ([1]; 6 h, replicate number 2): 0.42
Growth Rate ([1]; 12 h, replicate number 1): 0.83
Growth Rate ([1]; 12 h, replicate number 2): 0.31
Growth Rate ([1]; 18 h, replicate number 2): 0.73
Growth Rate ([1]; 24 h, replicate number 2): 0.83
Growth Rate ([2]; 0 h, replicate number 2): -0.84
Growth Rate ([2]; 6 h, replicate number 1): 0.99
Growth Rate ([2]; 6 h, replicate number 2): 0.71
Growth Rate ([2]; 12 h, replicate number 2): 0.95
Growth Rate ([2]; 18 h, replicate number 1): 1
Growth Rate ([2]; 18 h, replicate number 2): 0.93
Growth Rate ([2]; 24 h, replicate number 1): 0.98
Growth Rate ([2]; 24 h, replicate number 2): 0.83
Growth Rate ([3]; 0 h, replicate number 2): 0.72
Growth Rate ([3]; 6 h, replicate number 2): 0.95
Growth Rate ([3]; 12 h, replicate number 2): 0.77
Growth Rate ([3]; 18 h, replicate number 2): 0.92
Growth Rate ([3]; 24 h, replicate number 2): 0.98

CCn1c(-c2nonc2N)nc2ccccc21 [GW549034X]
Growth Rate ([1]; 0 h, replicate number 1): -1
Growth Rate ([1]; 0 h, replicate number 2): -0.96
Growth Rate ([2]; 0 h, replicate number 1): -1
Growth Rate ([2]; 0 h, replicate number 2): -0.14
Growth Rate ([3]; 0 h, replicate number 1): -1
Growth Rate ([3]; 18 h, replicate number 2): 0.97
Growth Rate ([3]; 24 h, replicate number 2): 0.93

Cc1nc(-c2ccc(C(F)(F)F)cc2)sc1C(=O)NCc1ccc(OC(C)(C)C(=O)O)cc1 [GW590735]
Growth Rate ([1]; 0 h, replicate number 2): 0.77
Growth Rate ([1]; 6 h, replicate number 1): 0.76
Growth Rate ([1]; 6 h, replicate number 2): 0.99
Growth Rate ([1]; 12 h, replicate number 1): 0.82
Growth Rate ([1]; 18 h, replicate number 1): 0.71
Growth Rate ([1]; 24 h, replicate number 1): 0.83
Growth Rate ([2]; 0 h, replicate number 1): 0.96
Growth Rate ([2]; 0 h, replicate number 2): 0.73
Growth Rate ([2]; 6 h, replicate number 2): 0.83
Growth Rate ([2]; 12 h, replicate number 2): 0.93
Growth Rate ([2]; 18 h, replicate number 2): 0.92
Growth Rate ([2]; 24 h, replicate number 2): 0.72
Growth Rate ([3]; 0 h, replicate number 1): -0.11
Growth Rate ([3]; 6 h, replicate number 1): 0.91
Growth Rate ([3]; 12 h, replicate number 1): 0.91
Growth Rate ([3]; 18 h, replicate number 1): 0.93
Growth Rate ([3]; 24 h, replicate number 1): 0.97
